Assay results taken from PubChem BioAssay (NCI).
Several values for one entry are separate records, joined by “and”; a condition that tells them apart may be missing. Identical values can stand only once.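 Five concentrations, 48 hours, 96-well plates. At the GI50, growth is halved. TGI is the concentration that stops growth completely.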

Legend:
Experiment in all cases: NCI-60 cell line screen, 48 h
[1] = tested on: OVCAR-8 ovarian
[2] = tested on: A549 NSCLC
[3] = tested on: LOX IMVI melanoma
[4] = tested on: RXF 393 renal
[5] = tested on: NCI-H226 lung
[6] = tested on: SN12C renal
[7] = tested on: IGROV1 ovarian
[8] = tested on: NCI-H522 lung
[9] = tested on: OVCAR-5 ovarian
[10] = tested on: MALME-3M melanoma

Compound | GI50 [1] | TGI [1] | GI50 [2] | TGI [2] | GI50 [3] | TGI [3] | GI50 [4] [µM] | TGI [4] | GI50 [5] | TGI [5] | GI50 [6] | TGI [6] | GI50 [7] | TGI [7] | GI50 [8] | TGI [8] | GI50 [9] | TGI [9] | GI50 [10] [µM] | TGI [10] [µM]
C[C@H]1CC2=CC(=O)CC[C@]2(C)[C@H]2CC[C@@]3(C)[C@@H](CC[C@]3(C)O)[C@H]12 | 34 µM | > 100 µM | 31.9 µM | > 100 µM | 29.2 µM | > 100 µM | 24.8 | 76.9 µM | 30 µM | > 100 µM | 41.6 µM | > 100 µM | 27.3 µM | > 73.3 µM | 28.4 µM | 75.5 µM | 55.9 µM | > 100 µM | 26 | > 92.4
CCN(CC)CCOc1nc2cc(OC)c(OC)cc2c2c1-c1ccc(OC)cc1C2=O | 8.62 µM | 21.4 µM | 1.48 µM | 2.87 µM | 1.27 µM | 2.7 µM | 12.8 | 25.9 µM | 13.6 µM | 35.1 µM | 5.29 µM | 21.1 µM | 5.65 µM | 20.6 µM | 0.312 µM | 18.7 µM | 21.2 µM | 36.4 µM | 21.1 | 36.9
CS(=O)(=O)Nc1cc(-c2ccc3ncnc(Nc4cccc(Cl)c4F)c3c2)cnc1Cl | 4.03 µM | 58.5 µM | 5.3 µM | 24.1 µM | 1.58 µM | 5.45 µM | 1.67 | 4.93 µM | 2.57 µM | 18.2 µM | 3.89 µM | 41.2 µM | 1.02 µM | 4.34 µM | 3 µM | 17 µM | 2.17 µM | 19.1 µM | 1.83 | 7.66
COc1cc(/C=C\c2cc(OC)c(OC)c(OC)c2)cc(NS(=O)(=O)c2cccc(Cl)c2)c1OC | 0.429 µM | > 100 µM | 0.264 µM | > 100 µM | 0.0574 µM | > 100 µM | 0.338 | > 100 µM | 0.311 µM | > 100 µM | 0.223 µM | > 100 µM | 0.0887 µM | > 100 µM | 0.0373 µM | 88.2 µM | 0.641 µM | > 100 µM | 20 | > 100
O=[N+]([O-])c1ccc(NC(=S)N/N=C(\c2ccccc2)c2ccccn2)cc1 | 0.0275 µM | 1.06 µM and 1.42 µM |  | 3.37 µM and 3.96 µM | 1.37 µM | 2.89 µM and 5.03 µM |  | 2.83 µM and 3.06 µM |  | 2.98 µM and 3.03 µM |  | 2.83 µM |  | 3.18 µM and 3.43 µM | 1.97 µM | 4.2 µM and 1.48 µM | 0.0772 µM | 2.58 µM and 4.58 µM |  | 3.52
COC(=O)/C(=N/O)C(C(=O)OC)C(=O)C(=O)Nc1c(Cl)cc(C)cc1S(=O)(=O)O (stereo unspecified) |  | > 100 µM |  | > 100 µM |  | > 100 µM |  | > 100 µM |  | > 100 µM |  | > 100 µM |  | > 100 µM |  | > 100 µM |  | > 100 µM |  | > 100
Cc1cccc(O)c(=O)c1 |  | > 100 µM |  | > 100 µM |  | > 100 µM |  | > 100 µM |  | 29.3 µM |  | > 100 µM |  | > 100 µM |  | > 100 µM |  | > 100 µM |  | > 100
CC1(C)N=C(N)N=C(N)N1c1ccc(OCCCCNC(=O)c2ccc(S(=O)(=O)F)cc2)c(Cl)c1 | 4.82 µM | > 100 µM | 4.17 µM | > 100 µM | 1.9 µM | > 100 µM | 8.99 | > 100 µM | 76 µM | > 100 µM | 4.47 µM | > 100 µM | 4.78 µM | > 100 µM | 10.5 µM | > 100 µM | > 100 µM | > 100 µM | > 100 | > 100
O=S1(=O)CC(Br)C(Br)C1 (stereo unspecified) | 4.85 µM | 18.4 µM | 13.5 µM | 28.9 µM | 0.628 µM | 10 µM | 1.11 | 2.64 µM | 1.49 µM | 11.2 µM | 4.07 µM | 17.4 µM | 10.6 µM | 28.6 µM | 1.99 µM | 3.86 µM | 15.8 µM | 54.9 µM | 3.91 | 13.1
O=C(Nc1ccccc1C(=O)O)C(=O)C(C(=O)c1ccccc1-c1ccccc1)C1OC(=O)c2ccccc21 (stereo unspecified) |  | 37.9 µM |  | 81.9 µM |  | 38.3 µM |  | 27.2 µM |  | 29.3 µM |  | 39.1 µM |  | 56.3 µM |  | 30.6 µM |  | 42.2 µM |  | 28.6
Cc1c(N)nc(C(CC(N)=O)NCC(N)C(N)=O)nc1C(=O)NC(C(=O)NC(C)C(O)C(C)C(=O)NC(C(=O)NCCc1nc(-c2nc(C(=O)NCCCNCCCCN)cs2)cs1)C(C)O)C(OC1OC(CO)C(O)C(O)C1OC1OC(CO)C(O)C(OC(N)=O)C1O)c1cnc[nH]1 (stereo unspecified) | 2.1 µg/mL and 1.04 µg/mL | 9.85 µg/mL and 25.1 µg/mL and > 10 µM | 2.69 µg/mL and 1.06 µg/mL | > 10 µM | 0.324 µg/mL and 0.149 µg/mL | 3.47 µg/mL and 10.3 µg/mL and > 10 µM |  | 3.45 µM | 9.65 µg/mL and 3.45 µg/mL |  | 3.12 µg/mL and 2.58 µg/mL | 27.6 µg/mL and > 10 µM | 9.17 µg/mL and 6.68 µg/mL | > 10 µM | 7.11 µg/mL | > 10 µM | 45.6 µg/mL | > 10 µM |  | > 10
C[C@H]1CCC/C=C/[C@@H]2C[C@H](O)C[C@H]2[C@H](O)[C@@H](SC2OC(CO)C(O)C(O)C2O)CC(=O)O1 (stereo partly specified) | 35 µM | > 100 µM | > 100 µM | > 100 µM | 35.7 µM | > 100 µM | 20 | 55.8 µM | 36.2 µM | > 100 µM | > 100 µM | > 100 µM | > 100 µM | > 100 µM | > 100 µM | > 100 µM | 48 µM | > 100 µM | 27.6 | 69.4
O=c1[nH]cnc2nc(-c3ccc(N(CCCl)CCCl)cc3)[nH]c12 | 8.89 µM | > 100 µM | 6.19 µM | > 100 µM | 1.75 µM | > 100 µM | 15.8 | 50.7 µM | 7.13 µM | 80.6 µM | 63.7 µM | > 100 µM | 26.9 µM | > 100 µM | > 100 µM | > 100 µM | 30.1 µM | > 100 µM | 33 | > 100
